Test results from ChEMBL document CHEMBL1201862, “PubChem BioAssay data set” (2004).
Activity calls are given as the source filed them.

Tests used:
Prothrombin = Prothrombin (Homo sapiens, UniProt P00734); experiment: Thrombin 1536 HTS Dose Response Confirmation. [Related pubchem assays: 1046 (Thrombin 1536 HTS; hits were confirmed in this assay)]; type: functional
Paired box protein Pax-8 = Paired box protein Pax-8 (Homo sapiens, UniProt Q06710); experiment: PAX8 transcriptional activity inhibition in RMG-I – RMG-I cells, luciferase, cherry-pick, dose response (AID 687027); type: functional, cell-based;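 note: luciferase reporter driven by Pax8 target thyroperoxidase promoter measured by SteadyGlo luminescence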
Vero = experiment: mammalian cell viability reduction – secondary assay, cytotoxicity control for West Nile virus antiviral project, dose response (AID 1650); type: functional; settings: Chlorocebus sabaeus
[1] = reduction of Shn3 3'UTR-driven luciferase in osteoblasts – cell-based, Clone20 osteoblasts, firefly luciferase, cherry-picked, dose response (AID 624132); type: functional;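 note: firefly luciferase luminescence from reporter carrying the Shn3 3'UTR in osteoblasts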
[2] = non-specific 3'UTR reporter inhibition in Clone20-Shn3RL – cell-based, Renilla luciferase, cherry-picked, counter-screen for Shn3 inhibitor project, dose response (AID 624133); type: functional
[3] = target: T1, Bifunctional protein GlmU (Mycobacterium tuberculosis, UniProt P9WMN3); experiment: Inhibitors of Mycobacterial Glucosamine-1-phosphate acetyl transferase (GlmU). Secondary screen.; set-up: species or system Mycobacterium tuberculosis H37Rv
T1 sequence (P9WMN3 whole entry): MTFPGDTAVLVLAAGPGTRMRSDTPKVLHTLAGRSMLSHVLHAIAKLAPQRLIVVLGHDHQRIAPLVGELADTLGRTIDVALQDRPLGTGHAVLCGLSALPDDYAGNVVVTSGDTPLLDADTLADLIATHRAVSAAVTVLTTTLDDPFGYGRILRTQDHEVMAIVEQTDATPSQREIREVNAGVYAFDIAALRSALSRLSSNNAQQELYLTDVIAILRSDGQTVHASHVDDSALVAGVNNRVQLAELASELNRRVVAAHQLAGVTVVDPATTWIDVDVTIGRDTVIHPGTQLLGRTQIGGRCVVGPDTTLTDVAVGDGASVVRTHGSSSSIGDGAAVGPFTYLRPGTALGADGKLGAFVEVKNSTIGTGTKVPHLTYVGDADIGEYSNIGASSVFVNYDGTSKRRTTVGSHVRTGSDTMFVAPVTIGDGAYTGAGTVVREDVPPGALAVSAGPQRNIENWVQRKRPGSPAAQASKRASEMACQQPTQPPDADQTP

[4] = target: T2, Histone-lysine N-methyltransferase NSD2 (Homo sapiens, UniProt O96028); type: biochemical
T2 sequence (O96028 whole entry): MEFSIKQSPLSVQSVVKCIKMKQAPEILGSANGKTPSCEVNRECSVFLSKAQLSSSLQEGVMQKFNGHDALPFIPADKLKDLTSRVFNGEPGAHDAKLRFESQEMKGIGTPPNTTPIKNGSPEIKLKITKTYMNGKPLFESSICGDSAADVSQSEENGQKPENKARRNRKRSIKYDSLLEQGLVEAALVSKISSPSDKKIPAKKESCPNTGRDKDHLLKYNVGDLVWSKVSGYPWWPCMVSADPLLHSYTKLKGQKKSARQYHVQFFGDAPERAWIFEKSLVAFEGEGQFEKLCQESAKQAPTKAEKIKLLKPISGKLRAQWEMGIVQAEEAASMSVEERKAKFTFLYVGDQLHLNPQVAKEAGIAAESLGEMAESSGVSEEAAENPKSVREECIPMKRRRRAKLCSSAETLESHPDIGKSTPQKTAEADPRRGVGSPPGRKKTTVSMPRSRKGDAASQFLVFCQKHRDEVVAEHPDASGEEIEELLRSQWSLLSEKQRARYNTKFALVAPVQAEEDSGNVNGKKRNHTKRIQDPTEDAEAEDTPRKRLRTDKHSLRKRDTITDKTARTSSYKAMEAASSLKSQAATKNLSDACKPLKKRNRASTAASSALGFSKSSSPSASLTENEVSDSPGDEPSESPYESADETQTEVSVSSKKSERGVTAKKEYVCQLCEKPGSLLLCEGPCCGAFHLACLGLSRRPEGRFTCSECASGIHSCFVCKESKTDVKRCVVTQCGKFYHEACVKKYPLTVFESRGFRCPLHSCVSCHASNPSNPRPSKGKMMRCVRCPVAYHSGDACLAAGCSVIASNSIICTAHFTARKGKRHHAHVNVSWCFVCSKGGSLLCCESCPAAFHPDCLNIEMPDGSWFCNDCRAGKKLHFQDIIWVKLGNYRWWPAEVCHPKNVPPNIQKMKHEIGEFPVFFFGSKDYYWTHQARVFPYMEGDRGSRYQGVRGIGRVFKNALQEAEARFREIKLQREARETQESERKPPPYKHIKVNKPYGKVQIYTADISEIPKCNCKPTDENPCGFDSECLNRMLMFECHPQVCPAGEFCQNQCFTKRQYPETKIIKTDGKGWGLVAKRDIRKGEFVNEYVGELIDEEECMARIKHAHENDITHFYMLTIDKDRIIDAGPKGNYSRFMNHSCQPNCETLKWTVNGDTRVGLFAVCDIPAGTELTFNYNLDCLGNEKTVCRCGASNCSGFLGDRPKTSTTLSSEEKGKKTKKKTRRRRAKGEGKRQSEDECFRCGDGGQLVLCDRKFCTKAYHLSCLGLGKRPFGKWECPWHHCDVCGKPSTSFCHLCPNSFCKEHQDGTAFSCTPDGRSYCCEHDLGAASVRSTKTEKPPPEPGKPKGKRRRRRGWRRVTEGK

[5] = target: T3, Carboxy-terminal domain RNA polymerase II polypeptide A small phosphatase 1 (Homo sapiens, UniProt Q9GZU7); experiment: CTDSP1 inhibitors, concentration-response, biochemical, absorbance readout, ultra-high-throughput screen actives (AID 540297); type: functional
T3 sequence (Q9GZU7 whole entry): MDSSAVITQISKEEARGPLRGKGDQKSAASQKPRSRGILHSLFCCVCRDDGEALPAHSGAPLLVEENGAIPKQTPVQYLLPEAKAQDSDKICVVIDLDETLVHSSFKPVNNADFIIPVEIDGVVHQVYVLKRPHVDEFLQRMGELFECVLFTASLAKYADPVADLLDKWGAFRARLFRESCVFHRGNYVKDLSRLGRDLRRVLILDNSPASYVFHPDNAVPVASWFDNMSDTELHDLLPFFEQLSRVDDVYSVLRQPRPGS

[6] = target: T4, RNA-binding protein pos-1 (Caenorhabditis elegans, UniProt G5EF15); experiment: disruptors of C. elegans POS-1 RNA interaction – biochemical, fluorescence polarization, dose response (AID 1964);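 note: purified POS-1 fused to maltose binding protein made in E. coli; potency of compounds blocking POS-1 binding to fluorescent RNA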
T4 sequence (G5EF15 whole entry): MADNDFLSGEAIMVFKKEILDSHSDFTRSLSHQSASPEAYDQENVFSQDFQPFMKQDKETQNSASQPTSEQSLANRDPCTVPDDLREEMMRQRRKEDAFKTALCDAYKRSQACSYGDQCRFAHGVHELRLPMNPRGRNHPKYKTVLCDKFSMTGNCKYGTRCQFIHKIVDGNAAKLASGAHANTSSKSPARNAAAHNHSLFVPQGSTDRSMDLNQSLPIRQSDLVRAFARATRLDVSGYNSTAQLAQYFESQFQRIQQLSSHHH

[7] = target: T5, Zinc finger protein mex-5 (Caenorhabditis elegans, UniProt Q9XUB2); experiment: potency of MEX-5 RNA-binding blockers – biochemical, C. elegans, fluorescence polarization, dose response (AID 1960)
T5 sequence (Q9XUB2 whole entry): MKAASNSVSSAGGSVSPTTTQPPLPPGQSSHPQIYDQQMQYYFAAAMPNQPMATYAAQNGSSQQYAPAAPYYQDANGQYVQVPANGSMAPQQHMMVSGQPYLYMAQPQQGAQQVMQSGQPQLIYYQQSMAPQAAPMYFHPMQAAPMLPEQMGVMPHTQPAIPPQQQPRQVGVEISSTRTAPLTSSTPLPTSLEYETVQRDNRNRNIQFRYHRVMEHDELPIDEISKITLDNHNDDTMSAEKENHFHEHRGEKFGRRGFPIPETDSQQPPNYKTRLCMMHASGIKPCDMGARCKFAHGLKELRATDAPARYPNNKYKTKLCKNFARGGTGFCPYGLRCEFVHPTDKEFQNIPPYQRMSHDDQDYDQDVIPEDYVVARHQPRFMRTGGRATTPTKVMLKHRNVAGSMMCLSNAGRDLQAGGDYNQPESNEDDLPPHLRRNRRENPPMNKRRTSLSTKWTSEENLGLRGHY

[8] = alpha-synuclein stem-loop luciferase translation blockers – H4 neuroglioma cells, luminescence, confirmation (AID 1988); type: functional, cell-based
[9] = Luminescence Cell-Based Dose Response HTS to Identify Inhibitors of 5'UTR Stem-Loop Driven Prion Protein mRNA Translation in H4 Neuroglioblastoma Cells. [Related pubchem assays: 1827 (Project Summary), 1813 (Primary HTS)]; type: functional
[10] = luciferase reporter signal suppression in cells – H4 neuroglioma cells, luminescence, dose response (AID 1990); type: functional, cell-based

Sequence of Paired box protein Pax-8 (Q06710 whole entry): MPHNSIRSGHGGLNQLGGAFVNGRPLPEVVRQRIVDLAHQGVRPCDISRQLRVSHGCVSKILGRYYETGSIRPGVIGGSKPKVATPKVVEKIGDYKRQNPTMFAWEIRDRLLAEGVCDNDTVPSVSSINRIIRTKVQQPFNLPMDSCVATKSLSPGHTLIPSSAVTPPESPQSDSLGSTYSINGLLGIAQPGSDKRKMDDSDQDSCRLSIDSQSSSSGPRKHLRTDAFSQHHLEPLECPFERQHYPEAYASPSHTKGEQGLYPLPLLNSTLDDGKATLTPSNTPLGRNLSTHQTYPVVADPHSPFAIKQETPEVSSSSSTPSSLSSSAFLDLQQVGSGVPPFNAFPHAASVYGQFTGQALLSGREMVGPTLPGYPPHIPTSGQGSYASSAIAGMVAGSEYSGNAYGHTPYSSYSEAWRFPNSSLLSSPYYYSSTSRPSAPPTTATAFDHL

## CCOc1ccc(NC(=O)C(C)O)c(NS(=O)(=O)c2ccc(CCNC(C)=O)cc2)c1 (stereo not given)
Prothrombin
  IC50: > 50 µM (not active)

## C=C1C(=O)[C@@]23[C@H](O)C[C@@H]4C(C)(C)CC[C@H](O)[C@]4(C)[C@@H]2C[C@H](O)[C@@H]1[C@H]3O
Paired box protein Pax-8
  AC50: 3.37 µM (active)
Vero
  CC50: 14.9 µM (active)
[1]
  AC50: 2.95 µM (active)
[2]
  AC50: 18.3 µM (active)

## CC(=O)NC1=NC(=O)/C(=C/c2cc(C)n(-c3cccc(C(=O)O)c3)c2C)S1
[3]
  IC50: 93.8 µM (active)
[4]
  AC50: 9.13 µM (active)
[5]
  IC50: 4.31 µM (active)
[6]
  EC50: > 300 µM (not active)
[7]
  EC50: > 300 µM (inconclusive)

## Cc1ccc(S(=O)(=O)/N=C/c2ccco2)cc1
Prothrombin
  IC50: > 50 µM (not active)

## C=CCc1cccc(/C=N/NC(=O)CNc2ccccc2)c1O
[8]
  EC50: > 120 µM (not active)
[9]
  EC50: 10.7 µM (active)
Prothrombin
  IC50: > 50 µM (not active)
[10]
  EC50: > 120 µM (not active)
